Results as given in publication PMC4552634, “A New Set of Chemical Starting Points with Plasmodium falciparum Transmission-Blocking Potential for Antimalarial Drug Discovery” (PLoS ONE, 2015).
Read-outs that look alike come from different tables or passages of the source.

What was measured:
[1] = test system: P. falciparum stage V gametocytes; assay: Gametocytocidal ATP bioluminescence assay (single point 5 μM and 1 μM, dose-response); type: cell-based, Plasmodium falciparum; settings: for Ratio IC50 HepG2/IC50 P. falciparum: IC50 HepG2 divided by IC50 P. falciparum gametocytes
Description: Purified stage IV-V gametocytes were obtained as previously described [10]. Single point ATP bioluminescence assay and dose–response of positive hits was determined in accordance with the previously published protocol [10].

HepG2 cells = assay: Cytotoxicity in HepG2 cells (intracellular ATP, ATPlite, 48 h); type: cell-based, human; settings: HepG2 cells; IC50 per ratio column head; unit inferred
[2] = test system: P. falciparum asexual stages; settings: asexual stages; TCAMS data; read-out: IC50 asexual; cited from earlier work
[3] = P. falciparum gametocytes, average, read-out: IC50 Pf Gametocytes average, IC50 (µM) average
[4] = sexual stages (gametocytes), dose-response, read-out: IC50 sexual

With `O=S(=O)(NCCN1CCCC1)c1cccc(-c2ccc(CNCc3ccc(F)cc3)cc2)c1` [TCMDC-132289] the “Ratio IC50 HepG2/IC50 P. falciparum” value [1] was 2.75, the IC50 [1, 3] was 2.69 µM and the IC50 (HepG2 cells) was 7.4 µM. The IC50 [2] was 0.234 µM.
In the case of `COc1ccccc1CCNc1nc(C)cc(N[C@@H](Cc2ccccc2)C(=O)NCc2cccc(F)c2)n1` [TCMDC-134893], the “Ratio IC50 HepG2/IC50 P. falciparum” value [1] is reported as 1.19, the IC50 [1, 3] is reported as 5.3 µM and the IC50 (HepG2 cells) is reported as 6.3 µM. The IC50 [2] was 0.867 µM.
With `CN1CCN(CCCN(Cc2cccc(-c3ccc(CNC4CCCC4)cc3)c2)C(=O)/C=C/c2ccccc2)CC1` [TCMDC-140544] the “Ratio IC50 HepG2/IC50 P. falciparum” value [1] was 9, the IC50 [1, 3] was 0.74 µM and the IC50 [1, 4] was 0.735 µM. For the same molecule, the IC50 (HepG2 cells) was 6.39 µM and the IC50 [2] was 0.746 µM.
For `COc1cc2ccccc2cc1OCCCN1CCN(CC(c2ccc(F)cc2)N2CCN(C(C)C)CC2)CC1` (centres unmarked) [TCMDC-135496], the “Ratio IC50 HepG2/IC50 P. falciparum” value [1] was 3, the IC50 [1, 3] was 1.25 µM and the IC50 [1, 4] was 1.25 µM. The IC50 (HepG2 cells) was 3.72 µM and the IC50 [2] was 0.749 µM.
With `CC(C)Oc1ccc2ccccc2c1CNCCCCCCNCc1c(OC(C)C)ccc2ccccc12` [TCMDC-137965] the “Ratio IC50 HepG2/IC50 P. falciparum” value [1] was 17, the IC50 [1, 3] was 0.14 µM and the IC50 (HepG2 cells) was 2.38 µM. For the same molecule, the IC50 [2] was 0.612 µM.
In the case of `CN(C)CCCOc1ccc(CN2CCC(c3c[nH]c4ccc(NCC5CCCCC5)cc34)CC2)cc1` [TCMDC-140737], the “Ratio IC50 HepG2/IC50 P. falciparum” value [1] is reported as 14, the IC50 [1, 3] is reported as 0.5 µM and the IC50 (HepG2 cells) is reported as 6.8 µM. The IC50 [2] was 0.678 µM.
In the case of `O=C(c1cccs1)N(Cc1cccc(-c2ccc(CNC3CCCC3)cc2)c1)C1CCN(Cc2ccccc2)CC1` [TCMDC-140567], the “Ratio IC50 HepG2/IC50 P. falciparum” value [1] is reported as 8, the IC50 [1, 3] is reported as 0.85 µM and the IC50 [1, 4] is reported as 0.845 µM. For the same molecule, the IC50 (HepG2 cells) was 7.1 µM and the IC50 [2] was 1.13 µM.
With `COc1ccc(CCNCCCCCCNCCc2ccc(-c3ccccc3)cc2)cc1OC` [TCMDC-131267] the “Ratio IC50 HepG2/IC50 P. falciparum” value [1] was 19, the IC50 [1, 3] was 0.17 µM and the IC50 [1, 4] was 0.173 µM. For the same molecule, the IC50 (HepG2 cells) was 3.25 µM and the IC50 [2] was 0.958 µM.
For `COc1cc2ccccc2c(CNCCCCCCNCc2c(OC)c(OC)cc3ccccc23)c1OC` [TCMDC-137795], the “Ratio IC50 HepG2/IC50 P. falciparum” value [1] was 4.5, the IC50 [1, 3] was 1.05 µM and the IC50 [1, 4] was 1.04 µM. For the same molecule, the IC50 (HepG2 cells) was 4.7 µM and the IC50 [2] was 1.11 µM.
For `FC(F)(F)COc1ccc2ccccc2c1CNCCCCCCNCc1c(OCC(F)(F)F)ccc2ccccc12` [TCMDC-137816], the “Ratio IC50 HepG2/IC50 P. falciparum” value [1] was 8, the IC50 [1, 3] was 0.37 µM and the IC50 (HepG2 cells) was 3.04 µM. The IC50 [2] was 0.352 µM.
With `CC(=O)c1ccc2nc[nH]c(=O)c2c1` [TCMDC-138172] the “Ratio IC50 HepG2/IC50 P. falciparum” value [1] was less than 3.9, the IC50 [1, 3] was 0.4 µM and the IC50 (HepG2 cells) was less than 1.56 µM. For the same molecule, the IC50 [2] was 0.722 µM.
With `CCNCc1cccc(-c2ccc3ccnc(N)c3c2)c1` [TCMDC-136869] the “Ratio IC50 HepG2/IC50 P. falciparum” value [1] was 7.56, the IC50 [1, 3] was 1.66 µM and the IC50 (HepG2 cells) was 12.5 µM. For the same molecule, the IC50 [2] was 0.047 µM.
For `COc1cccc(OC)c1CN1CCC(N(C)CCCCCCCCN2CCC(OC(=O)Nc3ccccc3-c3ccccc3)CC2)CC1` [TCMDC-134684], the “Ratio IC50 HepG2/IC50 P. falciparum” value [1] was 3.29, the IC50 [1, 3] was 1.04 µM and the IC50 [1, 4] was 1.03 µM. The IC50 (HepG2 cells) was 3.4 µM and the IC50 [2] was 0.458 µM.
With `CCOc1cc(CNCCCCCCNCc2cc(OCC)c(OCC)c3ccccc23)c2ccccc2c1OCC` [TCMDC-137939] the “Ratio IC50 HepG2/IC50 P. falciparum” value [1] was 3.62, the IC50 [1, 3] was 0.75 µM and the IC50 [1, 4] was 0.745 µM. For the same molecule, the IC50 (HepG2 cells) was 2.7 µM and the IC50 [2] was 0.284 µM.
With `COc1ccc2cc(CNCCCCCCNCc3ccc4cc(OC)ccc4c3)ccc2c1` [TCMDC-137797] the “Ratio IC50 HepG2/IC50 P. falciparum” value [1] was 4.48, the IC50 [1, 3] was 0.67 µM and the IC50 (HepG2 cells) was 3 µM. For the same molecule, the IC50 [2] was 0.624 µM.
With `CCc1c(CCNCCCCCCNC(C)(C)Cc2ccc3c(c2CC)OCO3)ccc(OC)c1OC` [TCMDC-132055] the “Ratio IC50 HepG2/IC50 P. falciparum” value [1] was 16, the IC50 [1, 3] was 0.27 µM and the IC50 [1, 4] was 0.266 µM. The IC50 (HepG2 cells) was 4.37 µM and the IC50 [2] was 0.934 µM.
For `O=C(CC1CCCC1)N(Cc1ccc(-c2ccc(CNC3Cc4ccccc4C3)cc2)cc1)CC1CCCCN1` (centres unmarked) [TCMDC-141446], the “Ratio IC50 HepG2/IC50 P. falciparum” value [1] was 6.45, the IC50 [1, 3] was 1 µM and the IC50 [1, 4] was 1 µM. For the same molecule, the IC50 (HepG2 cells) was 6.47 µM and the IC50 [2] was 1.06 µM.
For `O=S(=O)(NCCN1CCCC1)c1cccc(-c2ccc(CNC3Cc4ccccc4C3)cc2)c1` [TCMDC-132241], the “Ratio IC50 HepG2/IC50 P. falciparum” value [1] was 3.72, the IC50 [1, 3] was 2.15 µM and the IC50 (HepG2 cells) was 8 µM. The IC50 [2] was 0.66 µM.
For `CC(C)CNCc1ccc(-c2cccc(CN(C(=O)NC3CCCCC3)C3CCN(Cc4ccccc4)CC3)c2)cc1` [TCMDC-140628], the “Ratio IC50 HepG2/IC50 P. falciparum” value [1] was 1.09, the IC50 [1, 3] was 1.66 µM and the IC50 (HepG2 cells) was 1.81 µM. For the same molecule, the IC50 [2] was 0.805 µM.
With `CN(C)CCN(Cc1ccccc1-c1ccc(CNCCc2ccccc2)cc1)C(=O)c1ccccc1` [TCMDC-140532] the “Ratio IC50 HepG2/IC50 P. falciparum” value [1] was 10, the IC50 [1, 3] was 0.78 µM and the IC50 (HepG2 cells) was 7.54 µM. The IC50 [2] was 1.71 µM.
For `NC(N)=NN=Cc1c2ccccc2c(Cl)c2cc(Cl)ccc12` [TCMDC-137903], the “Ratio IC50 HepG2/IC50 P. falciparum” value [1] was 3.2, the IC50 [1, 3] was 2.35 µM and the IC50 [1, 4] was 2.35 µM. For the same molecule, the IC50 (HepG2 cells) was 7.5 µM and the IC50 [2] was 0.791 µM.
In the case of `CCCCCOc1ccc(C(=NC)N(CCCCC)CCCCC)c2ccccc12` [TCMDC-137703], the “Ratio IC50 HepG2/IC50 P. falciparum” value [1] is reported as 7, the IC50 [1, 3] is reported as 0.89 µM and the IC50 [1, 4] is reported as 0.885 µM. For the same molecule, the IC50 (HepG2 cells) was 6.3 µM.
